Counter-ions that a name gives are not always drawn. Like-named read-outs stand apart in the source and are kept apart here.
Test system: bed bugs, Cimex lectularius
Assay: Bed bug repellency bioassay, glass tube olfactometer arena
Type: in vivo
Conditions: for pest or weed control at 5 % strength / pest or weed control at 25 % strength / pest or weed control at 1 %: Cimex lectularius; for % Repellency, At least One Average >50%: best average over 3 replicates for a single time period; for pest or weed control at 1 %: 10 uL, 1% v/v in hexane
Experimental: Per individual bioassay, 10 adult or late instar nymph bed bugs, Cimex lectularius, of mixed sex. Bed bugs sourced from wild, field populations and tested within 2 weeks of capture. Subjects were tested one time, only.
(ii) Olfactometer consisting of a glass tube. Tube ends were plugged to prevent egress of test subjects. Test substrates were placed at opposite ends of the tube. Tube Olfactometer includes a port in the centre for introduction of test subjects. Dimensions of the tube were 15.2 mm in diameter by 304.8 mm long.
Compounds were either purchased from commercial sources or synthesized using conventional synthetic organic chemistry techniques (see, for example, Examples 5 to 7). Some compounds (014, 058 and 080) were tested in duplicate (one version from commercial sources and one synthesized) and the best performance is reported in the Tables below. Of the tested compounds reported in the Tables below, the following compounds were synthesized: 006, 010, 017, 018, 040, 041 to 043, 045, 046, 048, 049, 058, 067 to 075, 079, 080 to 082, 089 and 090.
Test compounds consisted of a control and treatment. The treatment consisted of a test compound mixed as a percentage w/w in a suitable solvent. The test compound solvent itself was used as a control. Solvents used were hexane, hexane:methanol, or dichloromethane:methanol.
(i) Gauze cut to a standard size and folded upon itself to provide harbourage for test subjects.
(iii) Absorbent polymer “aroma” beads that were given sufficient time to fully absorb test compounds and control solvents.
In the case of gauze and filter paper substrates, control solvents and test mixtures of known concentrations and volumes were dispensed directly onto substrates using a pipette. For polymer beads, beads were mixed w/w with solvent or test compound in a small glass jar. The jars were occasionally agitated to facilitate soaking of the beads.
Immediately after the substrates were infused with test compounds and control solvents, test subjects were introduced to the centre of the selected observation arena. […] Only subjects that were in close contact with the treatment or control substrates were recorded. Subjects elsewhere in the arena were not included in repellency calculations. Percentage repellency was calculated based on a modification of Abbott's formula to account for negative repellency (attraction). Specifically: IF(C>=T,(C−T)/C*100,(T−C)/T*−100)
where C is number of test subjects in contact with control substrate and T is number of test subjects in contact with treatment substrate.
All average repellency results reported in the table are based on 3 replicates for each reported trial, with each trial involving at least 3 observation periods. The observation periods were short-term (30 min), medium-term (1-2 hours), and long-term (24-48 hours). The “overall average” reported in the table represents the average for 3 replicates for 3 observation periods. […]
To determine whether compounds could be combined in the repellent compositions, compounds 14 and 35 were each tested at a concentration of 5% (w/w), and as a combination comprising each compound at a concentration of 2.5% (w/w). The formulations were tested as described in Example 1 using the olfactometer configuration.

[1] = gauze, 50 uL, 5% w/v in hexane, average of 3 replicates x 3 observation periods, read-out: % Repellency (% R), Overall Average
[2] = beads, 20 uL, 25% w/w in hexane, average of 3 replicates x 3 observation periods, read-out: % Repellency (% R), Overall Average
[3] = observation period T1, gauze, 50 uL, 5% w/v in hexane, read-out: % Repellency T1 (average of 3 repetitions)
[4] = observation period T2, gauze, 50 uL, 5% w/v in hexane, read-out: % Repellency T2 (average of 3 repetitions)
[5] = observation period T3, gauze, 50 uL, 5% w/v in hexane, read-out: % Repellency T3 (average of 3 repetitions)
[6] = gauze, average of 3 replicates x 3 observation periods, read-out: % Repellency (% R), Overall Average
[7] = gauze, 50 uL, 5% w/v in hexane, best single observation (one repetition, one time), read-out: % Repellency, At least One Time >50%
[8] = observation period T1, beads, 20 uL, 25% w/w in hexane, read-out: % Repellency T1 (average of 3 repetitions)
[9] = observation period T2, beads, 20 uL, 25% w/w in hexane, read-out: % Repellency T2 (average of 3 repetitions)
[10] = observation period T3, beads, 20 uL, 25% w/w in hexane, read-out: % Repellency T3 (average of 3 repetitions)

CCC(=O)NCC(OC)OC [Compound 045, N-(2,2-dimethoxyethyl) propionamide]
pest or weed control at 5 % strength [1]: 70%

CCC(=O)/C=C(\C)C(C)=O [Compound 074, (E)-3-methylhept-3-ene-2,5-dione]
pest or weed control at 25 % strength (beads, 20 uL, 25% w/w in dichloromethane:methanol (1:1), average of 3 replicates x 3 observation periods, read-out: % Repellency (% R), Overall Average): > 80%

CC(=O)CC/C=C(\C)CCC=C(C)C [Compound 044, 6,10-dimethyl-5,9-undecadien-2-one]
pest or weed control at 5 % strength [1]: > 80%

C=CC(O)c1ccco1 (stereo not shown) [Compound 078, 2-Furanmethanol, a-ethenyl-]
pest or weed control at 25 % strength [2]: > 80%

CCC(=O)CC(=O)OC [Compound 034, Methyl 3-oxovalerate]
pest or weed control at 5 % strength [1]: 27% | pest or weed control at 5 % strength [3]: 81% | pest or weed control at 5 % strength [4]: 94% | pest or weed control at 5 % strength [5]: -94% | % Repellency, At least One Average >50% (gauze, 50 uL, 5% w/v in hexane): 94%

CCCCC(=O)/C=C/CO [Compound 041, (E)-1-hydroxyoct-2-en-4-one]
pest or weed control at 5 % strength [1]: > 80%

CCOC(C#CC(=O)CC)OCC [Compound 079, 6,6-diethoxyhex-4-yn-3-one]
pest or weed control at 5 % strength [1]: > 80%

CN(C)C(=O)CCC(=O)O [Compound 053, 4-(Dimethylamino)-4-Oxobutanoic acid]
pest or weed control at 1 % [6]: 52%

CCCC(=O)c1ccco1 [Compound 086, 2-butyrylfuran]
pest or weed control at 25 % strength (beads, 20 uL, 25% w/w in hexane:methanol (1:1), average of 3 replicates x 3 observation periods, read-out: % Repellency (% R), Overall Average): > 80%

CCOC(=O)/C=C(\C)C=O [Compound 057, Ethyl 3-methyl-4-oxocrotonate]
pest or weed control at 25 % strength [2]: > 80%

CC(=O)OCc1ccco1 [Compound 084, Furfuryl acetate]
pest or weed control at 25 % strength [2]: 61%

CCCCC(=O)c1ccco1 [Compound 090, 1-Pentanone, 1-(2-furanyl)-]
pest or weed control at 5 % strength [1]: > 80%

CCCCCCCCCCC(C)=O [Compound 061, 2-dodecanone]
pest or weed control at 5 % strength [1]: > 80%

COC(=O)/C=C/C(=O)OC [Compound 058, dimethyl fumarate]
pest or weed control at 5 % strength [1]: > 80%

C=CCNC(=O)CC [Compound 043, N-allylpropionamide]
pest or weed control at 5 % strength [1]: 59%

CCCC(=O)CC [Compound 026, 3-Hexanone]
pest or weed control at 5 % strength [1]: 15% | pest or weed control at 5 % strength [7]: 100% | pest or weed control at 5 % strength [3]: 44% | pest or weed control at 5 % strength [4]: 37% | pest or weed control at 5 % strength [5]: -36%

CCCCCCCCCCCC(C)=O [Compound 024, Methyl undecyl ketone (2-tridecanone)]
pest or weed control at 5 % strength [1]: > 80%

CCCC(=O)/C=C/C=O [Compound 003, 4-oxo-2-heptenal]
pest or weed control at 5 % strength [1]: > 80%

CCC(=O)/C=C/c1ccco1 [Compound 040, (E)-1-(furan-2-yl)pent-1-en-3-one]
pest or weed control at 5 % strength [1]: > 80%

CC(C)C(O)c1ccco1 (stereo not shown) [Compound 071, 1-(furan-2-yl)-2-methylpropan-1-ol]
pest or weed control at 1 % [6]: 57%

CCCCC/C=C/C=O [Compound 039, trans-2-octenal]
pest or weed control at 5 % strength [1]: 78%

CCC(=O)/C=C/C(=O)CC [Compound 067, (E)-oct-4-ene-3,6-dione]
pest or weed control at 5 % strength (gauze, 50 uL, 5% w/v in hexane:methanol (1:1), average of 3 replicates x 3 observation periods, read-out: % Repellency (% R), Overall Average): > 80%

CCC(=O)NC [Compound 032, N-Methylpropionamide]
pest or weed control at 25 % strength (read-out: % Repellency (% R), Overall Average, beads, 20 uL, 25% w/w in hexane, average of 3 replicates x 3 observation periods): -9% | pest or weed control at 25 % strength (read-out: % Repellency T1 (average of 3 repetitions), observation period T1, beads, 20 uL, 25% w/w in hexane): 39% | pest or weed control at 25 % strength (read-out: % Repellency T2 (average of 3 repetitions), observation period T2, beads, 20 uL, 25% w/w in hexane): -40% | pest or weed control at 25 % strength (read-out: % Repellency T3 (average of 3 repetitions), observation period T3, beads, 20 uL, 25% w/w in hexane): -25% | pest or weed control at 25 % strength (read-out: % Repellency, At least One Time >50%, beads, 20 uL, 25% w/w in hexane, best single observation (one repetition, one time)): 100%

CCCCCC=O [Compound 037, hexanal]
pest or weed control at 5 % strength [1]: 79%

CCC(C)C(O)c1ccco1 (stereo not shown) [Compound 072]
pest or weed control at 5 % strength [1]: 79%

CC(=O)C(C)C(C)C(C)=O (stereo not shown) [Compound 025, 3,4-dimethyl-2,5-hexanedione]
pest or weed control at 25 % strength [2]: 77%

CCCCC(O)c1ccco1 (stereo not shown) [Compound 073, 1-(furan-2-yl) pentan-1-ol]
pest or weed control at 5 % strength [1]: > 80%

CCC/C=C/C=O [Compound 038, trans-2-hexen-1-al]
pest or weed control at 5 % strength [1]: 72%

CCC(=O)C(=O)CC [Compound 027, 3,4-Hexanedione]
pest or weed control at 5 % strength (read-out: % Repellency (% R), Overall Average, gauze, 50 uL, 5% w/v in hexane, average of 3 replicates x 3 observation periods): 75%

CCC(O)c1ccco1 (stereo not shown) [Compound 075, 1-(furan-2-yl) propan-1-ol]
pest or weed control at 1 % [6]: 79%

COC(=O)/C=C/C(C)=O [Compound 056, Methyl trans-4-oxo-2-pentenoate]
pest or weed control at 5 % strength [1]: 53%

CCOC(=O)c1ccco1 [Compound 085, Ethyl 2-furoate]
pest or weed control at 25 % strength [2]: 73%

CCC(=O)CC [Compound 062, 3-pentanone]
pest or weed control at 5 % strength [1]: 10% | pest or weed control at 5 % strength [7]: 89% | pest or weed control at 5 % strength [3]: -11% | pest or weed control at 5 % strength [4]: -3% | pest or weed control at 5 % strength [5]: 43%

CCC(=O)OCC1CCCO1 (stereo not shown) [Compound 060, Tetrahydro furfuryl propionate]
pest or weed control at 25 % strength [2]: 78%

CCCCCCC(=O)CC [Compound 028, 3-Nonanone]
pest or weed control at 1 % [6]: -10% | pest or weed control at 1 % (gauze, best single observation (one repetition, one time), read-out: % Repellency, At least One Time >50%): 67% | pest or weed control at 1 % (observation period T1, gauze, read-out: % Repellency T1 (average of 3 repetitions)): -11% | pest or weed control at 1 % (observation period T2, gauze, read-out: % Repellency T2 (average of 3 repetitions)): -11% | pest or weed control at 1 % (observation period T3, gauze, read-out: % Repellency T3 (average of 3 repetitions)): -6%

COC(=O)CCC=O [Compound 052, Methyl 4-oxobutanoate]
pest or weed control at 25 % strength [2]: -17% | pest or weed control at 25 % strength (beads, 20 uL, 25% w/w in hexane, best single observation (one repetition, one time), read-out: % Repellency, At least One Time >50%): 100% | pest or weed control at 25 % strength [8]: 11% | pest or weed control at 25 % strength [9]: -50% | pest or weed control at 25 % strength [10]: -11%

CCC(=O)OCC=O [Compound 008, 2-oxoethyl propionate]
pest or weed control at 5 % strength [1]: 27% | pest or weed control at 5 % strength [3]: 12% | pest or weed control at 5 % strength [4]: 53% | pest or weed control at 5 % strength [5]: 17% | % Repellency, At least One Average >50% (gauze, 50 uL, 5% w/v in hexane): 53%

CCC(=O)NCCO [Compound 018, N-(2-hydroxyethyl) propionamide]
pest or weed control at 25 % strength [2]: 50% | pest or weed control at 25 % strength [8]: 69% | pest or weed control at 25 % strength [9]: 69% | pest or weed control at 25 % strength [10]: 11% | % Repellency, At least One Average >50% (beads, 20 uL, 25% w/w in hexane): 69%

— patent US11116212B2, “Carbonyl containing compounds for controlling and repelling Cimicidae populations” (SemiosBio Technologies Inc., priority 2011, dated 2021)
